Assay results taken from patent US20240034722A1, “PRETARGETING IMAGING AGENTS” (Eli Lilly and Company, priority 2020, published 2024).
Several values for one entry are separate records, joined by “and”; a condition that tells them apart may be missing. Equal entries are not always repeated. Entries after “also recorded” stand apart in the source; their conditions may differ. Blank lines part the entries; values can stand above or below the compound they belong to.

Experiments:
[1] = Dynamic micro PET-CT imaging, tracer uptake in brain, muscle and bone; assay type: in vivo, CD-1 mice; details: for Bone uptake throughout the scan period (defluorination) / Uptake throughout the periphery of the body (liver, kidneys, heart) / Brain uptake after steady clearance of tracer / Crossing of the blood-brain-barrier / Peak brain uptake / Time of peak brain uptake post injection / Clearance from the brain: CD-1 male mice; for Bone uptake throughout the scan period (defluorination): 60-min scan; for Uptake throughout the periphery of the body (liver, kidneys, heart): PET; for Brain uptake after steady clearance of tracer: at 59.5 min post injection; for Crossing of the blood-brain-barrier / Peak brain uptake / Time of peak brain uptake post injection: dynamic PET; for Peak brain uptake / Time of peak brain uptake post injection: i.v.; for Bone Mean % ID/g / Brain Mean % ID/g / Muscle Mean % ID/g: male CD-1 mice, iv; for Clearance from the brain: by 60 minutes post injection, relative to muscle
Procedure: (§1) A Siemens Inveon® Multimodality Scanner (Siemens, Germany) is used for micro PET-CT imaging. Male CD-1 (6-week-old, ˜30 g) mice are anesthetized with 3% isoflurane/97% oxygen and placed on the bed of the scanner. The mice are administered [^18F]N-(4-(1,2,4,5-tetrazin-3-yl)benzyl)-2-fluoronicotinamide via a bolus intravenous tail vein injection (˜350 ρCi in a total volume of 150 μL saline). A total of four dynamic PET scans are conducted, followed by a short high-resolution CT scan for anatomical registration. PET images are generated for each minute of the acquisition time. Uptake of the tracer in the brain, muscle, and bone are determined by visually drawing regions of interest (ROIs) based on the fused PET/CT images and the corresponding activity values are determined using the Inveon® Research Workplace software. All values are represented as % injected dose per gram (% ID/g).
as §1, with “g) mice were anesthetized with” for “g) mice are anesthetized with”, “are administered [^18F]N-(4-(1,2,4,5-tetrazin-3-yl)benzyl)-6-fluoropicolinamide via a” for “are administered [^18F]N-(4-(1,2,4,5-tetrazin-3-yl)benzyl)-2-fluoronicotinamide via a”, “vein injection (˜300 ρCi in” for “vein injection (˜350 ρCi in”
as §1, with “PET/CT” for “PET-CT”, “30-40” for “˜30”, “[^18F]N-(4-(1,2,4,5-tetrazin-3-yl)benzyl)-6-fluoronicotinamide” for “[^18F]N-(4-(1,2,4,5-tetrazin-3-yl)benzyl)-2-fluoronicotinamide”, “(˜300” for “(˜350”, “two” for “four”

[2] = Stability of the tetrazine moiety in ascorbate formulation; assay type: physicochemical
[3] = listed as [^18F]N-(4-(1,2,4,5-tetrazin-3-yl)benzyl)-2-fluoronicotinamide
[4] = listed as [^18F]N-(4-(1,2,4,5-tetrazin-3-yl)benzyl)-6-fluoropicolinamide

SMILES: O=C(NCc1ccc(-c2nncnn2)cc1)c1cccnc1F [Example 1, N-(4-(1,2,4,5-tetrazin-3-yl)benzyl)-2-fluoronicotinamide]
- Reduction of the tetrazine moiety by ascorbate formulation [2]: readily reduced

SMILES: O=C(NCc1ccc(-c2nncnn2)cc1)c1cccnc1[18F] [Example 2, [^18F]N-(4-(1,2,4,5-tetrazin-3-yl)benzyl)-2-fluoronicotinamide]
- Bone uptake throughout the scan period (defluorination) [1]: remained low
- Uptake throughout the periphery of the body (liver, kidneys, heart) [1]: observed
- Brain uptake after steady clearance of tracer [1]: 1.2 % ID/g
- Clearance from the brain [1]: baseline levels defined by uptake in the muscle
- Clearance from the brain [1, 3]: near background levels (muscle)
- Crossing of the blood-brain-barrier [1]: readily cross the blood-brain-barrier
- Peak brain uptake [1]: 3.3±0.4 % ID/g
- Time of peak brain uptake post injection [1]: approximately 2 min
- Peak brain uptake [1, 3]: 3.3±0.4 % ID/g and 3.3 % ID/g
- Time of peak brain uptake post injection [1, 3]: 4.5 min
- Crossing of the blood-brain-barrier [1, 3]: readily cross the blood-brain-barrier; also recorded: readily crosses the blood-brain-barrier
- Reduction of the tetrazine moiety by ascorbate formulation [2]: readily reduced

Second part, led by results:

- Bone uptake throughout the scan period (defluorination) [1]: remained low
- Uptake throughout the periphery of the body (liver, kidneys, heart) [1]: readily observed
- Brain uptake after steady clearance of tracer [1]: 1.1 % ID/g
- Crossing of the blood-brain-barrier [1]: crosses the blood-brain-barrier
- Peak brain uptake [1]: 2.6 % ID/g
- Time of peak brain uptake post injection [1]: 2.5 min
- Bone Mean % ID/g ([1]; Time 0.5 min): 0.00 % ID/g
- Brain Mean % ID/g ([1]; Time 0.5 min): 0.00 % ID/g
- Muscle Mean % ID/g ([1]; Time 0.5 min): 0.00 % ID/g
- Bone Mean % ID/g ([1]; Time 1.5 min): 0.09 % ID/g
- Brain Mean % ID/g ([1]; Time 1.5 min): 0.52 % ID/g
- Muscle Mean % ID/g ([1]; Time 1.5 min): 0.07 % ID/g
- Bone Mean % ID/g ([1]; Time 2.5 min): 0.83 % ID/g
- Brain Mean % ID/g ([1]; Time 2.5 min): 2.57 % ID/g
- Muscle Mean % ID/g ([1]; Time 2.5 min): 0.56 % ID/g
- Bone Mean % ID/g ([1]; Time 3.5 min): 0.95 % ID/g
- Brain Mean % ID/g ([1]; Time 3.5 min): 2.45 % ID/g
- Muscle Mean % ID/g ([1]; Time 3.5 min): 0.67 % ID/g
- Bone Mean % ID/g ([1]; Time 4.5 min): 0.85 % ID/g
- Brain Mean % ID/g ([1]; Time 4.5 min): 2.29 % ID/g
- Muscle Mean % ID/g ([1]; Time 4.5 min): 0.73 % ID/g
- Bone Mean % ID/g ([1]; Time 5.5 min): 0.86 % ID/g
- Brain Mean % ID/g ([1]; Time 5.5 min): 2.20 % ID/g
- Muscle Mean % ID/g ([1]; Time 5.5 min): 0.72 % ID/g
- Bone Mean % ID/g ([1]; Time 6.5 min): 0.90 % ID/g
- Brain Mean % ID/g ([1]; Time 6.5 min): 2.23 % ID/g
- Muscle Mean % ID/g ([1]; Time 6.5 min): 0.80 % ID/g
- Bone Mean % ID/g ([1]; Time 7.5 min): 0.90 % ID/g
- Brain Mean % ID/g ([1]; Time 7.5 min): 2.15 % ID/g
- Muscle Mean % ID/g ([1]; Time 7.5 min): 0.84 % ID/g
- Bone Mean % ID/g ([1]; Time 8.5 min): 0.90 % ID/g
- Brain Mean % ID/g ([1]; Time 8.5 min): 2.10 % ID/g
- Muscle Mean % ID/g ([1]; Time 8.5 min): 0.84 % ID/g
- Bone Mean % ID/g ([1]; Time 9.5 min): 0.81 % ID/g
- Brain Mean % ID/g ([1]; Time 9.5 min): 2.00 % ID/g
- Muscle Mean % ID/g ([1]; Time 9.5 min): 0.78 % ID/g
- Bone Mean % ID/g ([1]; Time 10.5 min): 0.90 % ID/g
- Brain Mean % ID/g ([1]; Time 10.5 min): 1.95 % ID/g
- Muscle Mean % ID/g ([1]; Time 10.5 min): 0.79 % ID/g
- Bone Mean % ID/g ([1]; Time 11.5 min): 0.92 % ID/g
- Brain Mean % ID/g ([1]; Time 11.5 min): 1.89 % ID/g
- Muscle Mean % ID/g ([1]; Time 11.5 min): 0.84 % ID/g
- Bone Mean % ID/g ([1]; Time 12.5 min): 0.94 % ID/g
- Brain Mean % ID/g ([1]; Time 12.5 min): 1.86 % ID/g
- Muscle Mean % ID/g ([1]; Time 12.5 min): 0.84 % ID/g
- Bone Mean % ID/g ([1]; Time 13.5 min): 0.97 % ID/g
- Brain Mean % ID/g ([1]; Time 13.5 min): 1.83 % ID/g
- Muscle Mean % ID/g ([1]; Time 13.5 min): 0.88 % ID/g
- Bone Mean % ID/g ([1]; Time 14.5 min): 0.98 % ID/g
- Brain Mean % ID/g ([1]; Time 14.5 min): 1.78 % ID/g
- Muscle Mean % ID/g ([1]; Time 14.5 min): 0.88 % ID/g
- Bone Mean % ID/g ([1]; Time 15.5 min): 0.98 % ID/g
- Brain Mean % ID/g ([1]; Time 15.5 min): 1.76 % ID/g
- Muscle Mean % ID/g ([1]; Time 15.5 min): 0.89 % ID/g
- Bone Mean % ID/g ([1]; Time 16.5 min): 0.83 % ID/g
- Brain Mean % ID/g ([1]; Time 16.5 min): 1.72 % ID/g
- Muscle Mean % ID/g ([1]; Time 16.5 min): 0.93 % ID/g
- Bone Mean % ID/g ([1]; Time 17.5 min): 1.00 % ID/g
- Brain Mean % ID/g ([1]; Time 17.5 min): 1.69 % ID/g
- Muscle Mean % ID/g ([1]; Time 17.5 min): 0.91 % ID/g
- Bone Mean % ID/g ([1]; Time 18.5 min): 0.97 % ID/g
- Brain Mean % ID/g ([1]; Time 18.5 min): 1.65 % ID/g
- Muscle Mean % ID/g ([1]; Time 18.5 min): 0.89 % ID/g
- Bone Mean % ID/g ([1]; Time 19.5 min): 0.93 % ID/g
- Brain Mean % ID/g ([1]; Time 19.5 min): 1.63 % ID/g
- Muscle Mean % ID/g ([1]; Time 19.5 min): 0.90 % ID/g
- Bone Mean % ID/g ([1]; Time 20.5 min): 1.01 % ID/g
- Brain Mean % ID/g ([1]; Time 20.5 min): 1.61 % ID/g
- Muscle Mean % ID/g ([1]; Time 20.5 min): 0.95 % ID/g
- Bone Mean % ID/g ([1]; Time 21.5 min): 0.91 % ID/g
- Brain Mean % ID/g ([1]; Time 21.5 min): 1.58 % ID/g
- Muscle Mean % ID/g ([1]; Time 21.5 min): 0.98 % ID/g
- Bone Mean % ID/g ([1]; Time 22.5 min): 1.02 % ID/g
- Brain Mean % ID/g ([1]; Time 22.5 min): 1.56 % ID/g
- Muscle Mean % ID/g ([1]; Time 22.5 min): 0.95 % ID/g
- Bone Mean % ID/g ([1]; Time 23.5 min): 1.04 % ID/g
- Brain Mean % ID/g ([1]; Time 23.5 min): 1.55 % ID/g
- Muscle Mean % ID/g ([1]; Time 23.5 min): 1.00 % ID/g
- Bone Mean % ID/g ([1]; Time 24.5 min): 1.11 % ID/g
- Brain Mean % ID/g ([1]; Time 24.5 min): 1.51 % ID/g
- Muscle Mean % ID/g ([1]; Time 24.5 min): 0.98 % ID/g
- Bone Mean % ID/g ([1]; Time 25.5 min): 0.93 % ID/g
- Brain Mean % ID/g ([1]; Time 25.5 min): 1.49 % ID/g
- Muscle Mean % ID/g ([1]; Time 25.5 min): 0.99 % ID/g
- Bone Mean % ID/g ([1]; Time 26.5 min): 0.86 % ID/g
- Brain Mean % ID/g ([1]; Time 26.5 min): 1.46 % ID/g
- Muscle Mean % ID/g ([1]; Time 26.5 min): 0.95 % ID/g
- Bone Mean % ID/g ([1]; Time 27.5 min): 0.94 % ID/g
- Brain Mean % ID/g ([1]; Time 27.5 min): 1.45 % ID/g
- Muscle Mean % ID/g ([1]; Time 27.5 min): 0.94 % ID/g
- Bone Mean % ID/g ([1]; Time 28.5 min): 1.00 % ID/g
- Brain Mean % ID/g ([1]; Time 28.5 min): 1.42 % ID/g
- Muscle Mean % ID/g ([1]; Time 28.5 min): 1.00 % ID/g
- Bone Mean % ID/g ([1]; Time 29.5 min): 1.05 % ID/g
- Brain Mean % ID/g ([1]; Time 29.5 min): 1.40 % ID/g
- Muscle Mean % ID/g ([1]; Time 29.5 min): 0.97 % ID/g
- Bone Mean % ID/g ([1]; Time 30.5 min): 0.95 % ID/g
- Brain Mean % ID/g ([1]; Time 30.5 min): 1.38 % ID/g
- Muscle Mean % ID/g ([1]; Time 30.5 min): 0.99 % ID/g
- Bone Mean % ID/g ([1]; Time 31.5 min): 1.04 % ID/g
- Brain Mean % ID/g ([1]; Time 31.5 min): 1.38 % ID/g
- Muscle Mean % ID/g ([1]; Time 31.5 min): 0.95 % ID/g
- Bone Mean % ID/g ([1]; Time 32.5 min): 1.04 % ID/g
- Brain Mean % ID/g ([1]; Time 32.5 min): 1.36 % ID/g
- Muscle Mean % ID/g ([1]; Time 32.5 min): 0.97 % ID/g
SMILES: O=C(NCc1ccc(-c2nncnn2)cc1)c1ccc([18F])nc1 [Comparative Example 6, [^18]FN-(4-(1,2,4,5-tetrazin-3-yl)benzyl)-6-fluoronicotinamide]

- Reduction of the tetrazine moiety by ascorbate formulation [2]: readily reduced
SMILES: O=C(NCc1ccc(-c2nncnn2)cc1)c1cccc(F)n1 [Example 3, N-(4-(1,2,4,5-tetrazin-3-yl)benzyl)-6-fluoropicolinamide]

- Bone uptake throughout the scan period (defluorination) [1]: remained low
- Uptake throughout the periphery of the body (liver, kidneys, heart) [1]: observed
- Brain uptake after steady clearance of tracer [1]: 1.1 % ID/g
- Clearance from the brain [1, 4]: near background levels (muscle)
- Crossing of the blood-brain-barrier [1]: readily cross the blood-brain-barrier
- Peak brain uptake [1]: 4.3±0.3 % ID/g
- Time of peak brain uptake post injection [1]: approximately 2 min
- Peak brain uptake [1, 4]: 4.3±0.3 % ID/g and 4.3 % ID/g
- Time of peak brain uptake post injection [1, 4]: 2.5 min
SMILES: O=C(NCc1ccc(-c2nncnn2)cc1)c1cccc([18F])n1 [Example 4, [^18F]N-(4-(1,2,4,5-tetrazin-3-yl)benzyl)-6-fluoropicolinamide]
- Clearance from the brain [1]: baseline levels defined by uptake in the muscle
- Crossing of the blood-brain-barrier [1, 4]: readily cross the blood-brain-barrier; also recorded: readily crosses the blood-brain-barrier
